This passage reports IC50 results from patent publication US5691376A, “Substituted biphenyl derivatives” (American Home Products Corporation, priority 1996, dated 1997).

Where a name gives a salt, the structure may show the parent alone.

The subject of assay [1] is PDE IV isolated from dog tracheal muscle. Kind of assay: Test Procedure No. 1: inhibition of PDE IV from canine tracheal muscle (cAMP metabolism). The class given is biochemical, dog (canine). Conditions: 1 μM 3H-cAMP, 10 μM CI-930, 30° C. As to the method:
A solution containing PDE IV is prepared from canine tracheal muscle as follows:
The dog is euthanized with an overdose of beuthanasia while under anesthesia induced by a 33 mg/kg IV bolus of Nembutal. The trachealis muscle is removed, cleaned of connective tissue, and minced thoroughly. Three to four grams of tissue is then homogenized in Tris-HCl buffer (pH 7.8) using a Polytron. The homogenate is then centrifuged at 25,000×g (4° C.) for 30 minutes. The supernatant is decanted and filtered through four layers of gauze, and applied to a 40 cm×2 cm DEAE-Sepharose column that is equilibrated with Tris-HCl buffer (pH 7.8). The column is then washed with an additional 240 mL of buffer to remove unbound proteins. PDE is eluted using 450 mL of Tris-HCl buffer containing a linear gradient of 0.0-1.0M Na-acetate (80 mL/hr), and 7.5 mL fractions are collected. Each fraction is assayed for cAMP- and cGMP-metabolizing PDE activity. Fractions eluting at approximately 0.6M Na-acetate, and containing cAMP but not cGMP metabolic activity are pooled and used as a PDE stock solution for assaying PDE IV inhibitory activity.
CI-930 is included as an inhibitor of the cyclic GMP-sensitive, cyclic AMP-selectivePDE (PDE III) that is also present in the PDE IV stock solution when prepared as described above.
The two abovementioned PDE IV inhibition tests were used to determine the PDE IV inhibitory abilities of some of the compounds of the present invention.

The subject of a further assay is PDE IV. In words: Test Procedure No. 2: functional PDE IV inhibition, relaxation of carbachol-precontracted tracheal rings with CI-930. The class given is cell-based, guinea pig (Male Hartley). Conditions: guinea pig tracheal rings precontracted with 1 μM carbachol; CI-930 10 μM; read-out: Test No. 2 IC50 (functional PDE inhibitory test). As for the experimental part: The following standard test is also employed to assess the abilities of compounds to inhibit PDE IV functionally.
Male Hartley guinea pigs (500-550 g, Charles River) were euthanized by a blow to the head, and the tracheas were removed and placed in aerated physiological salt solution (PSS) containing NaCl ([…]), KH2 PO4 ([…]), KCl (4.74 mM), CaCl2 (2.5 mM), MgSO4.7H2 O ([…]), NaHCO3 (25 mM), dextrose (11.1 mM), cocaine and hydrocortisone (3 μM and 10 μM, respectively, to block intraneural and extraneural uptake mechanisms), propranolol and phentolamine (1 μM and 10 μM, respectively, to block adrenoceptors),indomethacin (2.8 μM; to block spontaneous tension generation), and calcium disodium EDTA (26 μM, as an antioxidant). Tracheal rings were prepared and mounted in 10 ml organ baths for the measurement of isometric tension generation as previously described (Heaslip et al., 1986).
Tracheal relaxation resulting from the inhibition of PDE-IV or PDE-III was assessed by a method similar to that employed by Harris et al. (1989). Tracheal rings were precontracted with 1 μM carbachol until a stable level of tension was obtained (30 min). To explore the inhibition of PDE-IV, tracheal rings were then incubated (45 min) with CI-930 (10 μM), thus inhibiting PDE-III and sensitizing the ring to the relaxant effects of PDE-IV inhibitors. Conversely, the inhibition of tracheal PDE-III was explored using rings pretreated with rolipram (10 μM), and thereby sensitized to PDE-III inhibitors (Harris et al., 1989). The functional inhibition of PDE-IV or PDE-III was determined by adding a test compound to the tissue bath in cumulatively increasing concentrations and monitoring the degree of relaxation induced in the continued presence of CI-930 or rolipram (respectively). After adding the final concentration of test compound to the organ bath, tracheal rings were washed repeatedly with PSS, and allowed to relax to resting tension. Percent relaxations produced by each concentration of test compound were calculated as a percentage relaxation of tension maintained in the presence of the preincubating PDE inhibitor, relative to the final resting tension determined at the end of each experiment.
The two abovementioned PDE IV inhibition tests were used to determine the PDE IV inhibitory abilities of some of the compounds of the present invention. The table below indicates the compounds tested and the results thereof. For each of Tests 1 and 2, the results are given as IC50 s for the compound tested in M concentrations.

For a further assay, the system named is U937 PDE IV. In words: Test procedure No. 3: inhibition of PDE-IV isolated from U937 cells. Conditions: 1 μM [3H]-cAMP; 37° C.; pH 7.8; linear regression of percent inhibition. The class given is biochemical.

In general, IC50 refers to the point on the concentration scale where inhibition reaches its midpoint. For `COc1ccc(-c2ccc(C=O)cc2)cc1OC1CCCC1` [Example 9, 3'-Cyclopentyloxy-4'-methoxy-biphenyl-4-carbaldehyde], the figures for the IC50 (in assay [1] (pH 7.8); in the assay on PDE IV) were 0.02 µM and 0.023 µM, respectively. As to `COc1ccc(-c2ccc(Cl)cc2)cc1OC1CCCC1` [Example 6, 4-Chloro-3'-Cyclopentyloxy-4'-methoxy-biphenyl], the IC50 in assay [1] (pH 7.8) worked out at 0.1 µM; in the assay with PDE IV it was 12 µM. Compound `COc1ccc(-c2ccc(C(C)=O)cc2)cc1OC1CCCC1` [Example 12, 1-(3'-Cyclopentyloxy-4'-methoxy-biphenyl-4-yl)-ethanone] returned a half-inhibitory concentration (IC50) in assay [1] (pH 7.8) of 0.086 µM. Compound `COc1ccc(-c2ccc3c(=O)[nH][nH]c(=O)c3c2)cc1OC1CCCC1` [Example 34, 6-(3'-Cyclopentyloxy-4-methoxyphenyl)-2,3-dihydrophthalizine-1,4-dione] displayed an IC50 in assay [1] (pH 7.8) of 0.049 µM. Take `COc1ccc(-c2ccc(C(=O)c3ccccc3)cc2)cc1OC1CCCC1` [Example 13, (3'-Cyclopentyloxy-4'-methoxy-biphenyl-4-yl)-phenylmethanone]: the IC50 in assay [1] (pH 7.8) amounted to 0.61 µM. Compound `COc1ccc(-c2cccc(C(C)=O)c2)cc1OC1CCCC1` [Example 11, 1-(3'-Cyclopentyloxy-4'-methoxy-biphenyl-3-yl)-ethanone] came in with an IC50 in assay [1] (pH 7.8) of 0.0043 µM. For the compound `COc1ccc(-c2ccc(C(=O)O)c(C(=O)O)c2)cc1OC1CCCC1` [Example 32, 3'-Cyclopentyloxy-4'-methoxy-biphenyl-3,4-dicarboxylic acid], in assay [1] (pH 7.8), the IC50 came out at 10 µM.

The compound `COc1ccc(-c2ccc3c(c2)CCC/C3=N\O)cc1OC1CCCC1` [Example 21, (E)-6-(3-Cyclopentyloxy-4-methoxy-phenyl)-3,4-dihydro-2H-naphthalen-1-one oxime] showed an IC50 in assay [1] (pH 7.8) of 0.29 µM. For the compound `COc1ccc(-c2cccc(C(=O)O)c2)cc1OC1CCCC1` [Example 5, 3'-Cyclopentyloxy-4'-methoxy-biphenyl-3-carboxylic acid], the half-inhibitory concentration (IC50) in assay [1] (pH 7.8) came out at 0.023 µM; with PDE IV, 0.061 µM. Regarding `COc1ccc(-c2cccc(C=NO)c2)cc1OC1CCCC1` [Example 23, 3'-Cyclopentyloxy-4'-methoxy-biphenyl-3-carbaldehyde oxime], the IC50 in assay [1] (pH 7.8) amounted to 0.039 µM; with PDE IV, 1.9 µM. On to `COc1ccc(-c2cccc(C=O)c2)cc1OC1CCCC1` [Example 8, 3'-Cyclopentyloxy-4'-methoxy-biphenyl-3-carbaldehyde], for which the IC50 in assay [1] (pH 7.8) came out at 0.034 µM; with PDE IV it was 0.33 µM. For the compound `COc1ccc(-c2cccc(NC(N)=O)c2)cc1OC1CCCC1` [Example 27, (3'-Cyclopentyloxy-4'-methoxy-biphenyl-3-yl)-urea], half-maximal inhibition in assay [1] (pH 7.8) (IC50) was put at 0.55 µM. Same read-out and setting: the same measure for `COc1ccc(-c2cccc(C#N)c2)cc1OC1CCCC1` [Example 14, 3'-Cyclopentyloxy-4'-methoxy-biphenyl-3-carbonitrile]: 0.084 µM.

As for `COc1ccc(-c2ccc(C(=O)O)cc2)cc1OC1CCCC1` [Example 17, 3'-Cyclopentyloxy-4'-methoxy-biphenyl-4-carboxylic acid sodium salt], the half-inhibitory concentration (IC50) in assay [1] (pH 7.8, sodium salt) was found to be 0.11 µM. Take `COc1ccc(-c2cccc(NC(C)=O)c2)cc1OC1CCCC1` [Example 29, N-(3'-Cyclopentyloxy-4'-methoxy-biphenyl-3-yl)-acetamide]: the half-inhibitory concentration (IC50) in assay [1] (pH 7.8) amounted to 0.47 µM. Consider `COc1ccc(-c2ccc(C(=O)NN)cc2)cc1OC1CCCC1` [Example 3, 3'-Cyclopentyloxy-4'-methoxy-biphenyl-4-carboxylic acid hydrazide], for which the IC50 in assay [1] (pH 7.8) is 0.058 µM; in the assay with PDE IV, 0.066 µM. In assay [1] (pH 7.8), `COC(=O)c1ccc(-c2ccc(OC)c(OC3CCCC3)c2)cc1C(=O)OC` [Example 33, 3'-Cyclopentyloxy-4'-methoxy-biphenyl-3,4-dicarboxylic acid dimethyl ester] returned an IC50 of 1.1 µM. On the same count and under the same terms, the figure for `COc1ccc(-c2cccc(C(N)=O)c2)cc1OC1CCCC1` [Example 30, 3'-Cyclopentyloxy-4'-methoxy-biphenyl-3-carboxylic acid amide] is 0.016 µM.

Take `COc1ccc(-c2ccc(C=NO)cc2)cc1OC1CCCC1` [Example 22, 3'-Cyclopentyloxy-4'-methoxy-biphenyl-4-carbaldehyde oxime]: the IC50 in assay [1] (pH 7.8) stood at 0.036 µM; with PDE IV, 0.14 µM. In the case of `COc1ccc(-c2ccc3c(c2)CCC/C3=N\OC(C)=O)cc1OC1CCCC1` [Example 25, E-6-(3-Cyclopentyloxy-4-methoxy-phenyl)-3,4-dihydro-2H-naphthalen-1-one oxime acetate], half-maximal inhibition in assay [1] (pH 7.8) (IC50) required 0.73 µM. The same measure, in the same setting: the figure for `COc1ccc(-c2ccc(C(=O)NO)cc2)cc1OC1CCCC1` [Example 31, 3'-Cyclopentyloxy-4'-methoxy-biphenyl-4-carboxylic acid hydroxylamide] is 0.1 µM. In assay [1] (pH 7.8), `COc1ccc(-c2ccc(N)cc2)cc1OC1CCCC1` [Example 16, 3'-Cyclopentyloxy-4'-methoxybiphenyl-4-ylamine] gave an IC50 of 0.33 µM. For the compound `COc1ccc(-c2ccc(NC(C)=O)cc2)cc1OC1CCCC1` [Example 28, N-(3'-Cyclopentyloxy-4'-methoxy-biphenyl-4-yl)-acetamide], in assay [1] (pH 7.8), the IC50 was 1 µM. Still for that read-out and setting: the figure for `COc1ccc(-c2ccc3c(c2)CCCC3=O)cc1OC1CCCC1` [Example 20, 6-(3-Cyclopentyloxy-4-methoxy-phenyl)-3,4-dihydro-2H-naphthalen-1-one] is 0.059 µM; for `COC(=O)c1ccc(-c2ccc(OC)c(OC3CCCC3)c2)cc1` [Example 19, 3'-Cyclopentyloxy-4'-methoxy-biphenyl-4-carboxylic acid methyl ester] it is 0.58 µM. Same read-out and setting: the figure for `COc1ccc(-c2cccc(C(=O)NN)c2)cc1OC1CCCC1` [Example 4, 3'-Cyclopentyloxy-4'-methoxy-biphenyl-3-carboxylic acid hydrazide] is 0.1 µM. In turn, `COc1ccc(-c2ccc(C(=O)NCc3cccnc3)cc2)cc1OC1CCCC1` [Comparative Example 1, 3'-Cyclopentyloxy-4'-methoxy-biphenyl-4(3-methylpryridyl) carboxylic acid amide, reference compound] registered an IC50 with U937 PDE IV of more than 1 µM. On to `COc1ccc(-c2ccccc2C=O)cc1OC1CCCC1` [Example 10, 3'-Cyclopentyloxy-4'-methoxy-biphenyl-2-carbaldehyde], for which the IC50 in assay [1] (pH 7.8) turned out to be 0.1 µM.

For `COc1ccc(-c2ccc(C(=O)O)cc2)cc1OC1CCCC1` [Example 1, 3'-Cyclopentyloxy-4'-methoxy-biphenyl-4-carboxylic acid], the IC50 was 0.245 µM in assay [1] (pH 7.8) and 0.23 µM with U937 PDE IV. As to `COC(=O)c1cccc(-c2ccc(OC)c(OC3CCCC3)c2)c1` [Example 18, 3'-Cyclopentyloxy-4'-methoxy-biphenyl-3-carboxylic acid methyl ester], the IC50 in assay [1] (pH 7.8) came out at 0.031 µM; in the assay on PDE IV, 0.23 µM. On to `COc1ccc(-c2ccc(C(N)=O)cc2)cc1OC1CCCC1` [Example 2, 3'-Cyclopentyloxy-4'-methoxy-biphenyl-4-carboxylic acid amide], for which the IC50 in assay [1] (pH 7.8) is 0.06 µM; with PDE IV, 0.16 µM.

Consider `COc1ccc(-c2ccc(NC(N)=O)cc2)cc1OC1CCCC1` [Example 26, (3'-Cyclopentyloxy-4'-methoxy-biphenyl-4-yl)-urea], for which the IC50 in assay [1] (pH 7.8) was determined as 0.27 µM.
